For experiment [1], the system named is Acinetobacter baumannii (ATCC 19606). As to the kind of experiment: Bacterial proliferation assay, A. baumannii. The class given is cell-based. The text has this:
Bacterial Strains: Enterococcus faecium—(Orla-Jensen) Schleifer and Kilpper-Balz strain NCTC 7171 (ATCC 19434); Drug sensitive Staphylococcus aureus—Rosenbranch strain Seattle 1945 (ATCC 25923); Methicillin resistant S. aureus (MRSA)—Rosenbach strain HPV107 (ATCC BAA-44); Klebsiella Pneumonia—(Schroeter) Trevisan strain NCTC 9633 (ATCC 13883); Acinetobacter baumannii—Bouvet and Grimont strain 2208 (ATCC 19606); Pseudomonas aeruginosa—(Schroeter) Migula strain NCTC 10332 (ATCC 10145); Enterobacter cloacae—E. cloacae, subsp. cloacae (Jordan) Hormaeche and Edwards strain CDC 442-68 (ATCC 13047).
Growth Media: All bacteria were grown in Brain Heart Infusion (BHI) broth/agar (Becton, Dickinson and Company). All liquid cultures were grown in BHI media supplemented with 25 mg/L Ca^2+ and 12.5 mg/L Mg^2+ to mimic free physiological concentrations of these cations. A 10 mg/mL Ca^2+ stock solution was prepared by dissolving 3.68 g of CaCl2.2H2O in 100 mL of deionized water, and a 10 mg/mL Mg^2+ stock solution was prepared by dissolving 8.36 g of MgCl2.6H2O in 100 mL deionized water. Both stock solutions were filter-sterilized using 0.2 μm pore size cellulose-acetate filters. 2.5 mL of the sterile 10 mg/mL Ca^2+ stock and 1.25 mL of the sterile 10 mg/mL Mg^2+ stock solutions were added per 1 L of autoclaved BHI medium to obtain 25 mg/L Ca^2+ and 12.5 mg/L Mg^2+ ions, respectively.
General Assay Protocol: Stock bacterial cultures were streaked onto BHI agar plates and grown overnight at 37° C. Fresh aliquots of broth were inoculated with single bacterial colonies and the cultures were grown overnight at 37° C. with shaking (240 rpm) in cation adjusted BHI media. The following morning, the overnight cultures were sub-cultured (1:5 dilution) into fresh aliquots of cation adjusted BHI media and grown at 37° C. for 1-2 hours with shaking. After 2 h, cultures were diluted into fresh media to achieve final OD600 readings of 0.017. Aliquots of these diluted cultures (30 μL) were added to clear, flat-bottom, 384-well polystyrene plates that were stamped with 0.5 μL of test compounds in 20 μL media. […] Plates were sealed with “Breathe Easy” oxygen permeable membranes (Diversified Biotech) and left to incubate at 37° C. without shaking (stagnant assay). OD600 nm readings were taken at either 6-8 h (S. aureus, MRSA, K. pneumonia, E. cloacae, and P. aeruginosa) or 24 h (E. faecium and A. baumannii). A second set of baseline control plates were prepared analogously, but without any bacteria added, to correct for possible compound absorbance and/or precipitation. Plates were then read at 600 nm using a Molecular Devices SpectraMax Plus384 microplate reader. […] Results presented represent the averages of EC50 values obtained from at quadriplicate (duplicate of duplicate) replicates.

The target of a further experiment is T1, human HSP60/10 (Homo sapiens, UniProt P10809).
T1 construct: octa-Histidine tag (TEV-cleavable) (N, cleaved yes); made in house; host or cells: HSP60 in E. coli Rosetta 2 (DE3); HSP10 in Rosetta 2 (DE3) pLysS
The experiment can be described thus: HSP60/10-mediated dMDH refolding assay. The experiment is classed as biochemical. The note with it: human HSP60/10-dMDH refolding assay. The method, then:
Reagent preparation: For these assays, four primary reagent stocks were prepared: 1) GroEUES-dMDH or HSP60/10-dMDH binary complex stock; 2) ATP initiation stock; 3) EDTA quench stock; 4) MDH enzymatic assay stock. Denatured MDH (dMDH) was prepared by 2-fold dilution of MDH (5 mg/ml, soluble pig heart MDH from Roche, product #10127248001) with denaturant buffer (7 M guanidine-HCl, 200 mM Tris, pH 7.4, and 50 mM DTT). MDH was completely denatured by incubating at room temperature for 45 min. The binary complex solutions were prepared by slowly adding the dMDH stock to a stirring stock with GroEL (or HSP60) in folding buffer (50 mM Tris-HCl, pH 7.4, 50 mM KCl, 10 mM MgCl2, and 1 mM DTT), followed by addition of GroES (or HSP10). The binary complex stocks were prepared immediately prior to dispensing into the assay plates and had final protein concentrations of 83.3 nM GroEL (Mr 800 kDa) or HSP60 (Mr 400 kDa), 100 nM GroES or HSP10 (Mr 70 kDa), and 20 nM dMDH in folding buffer. For the ATP initiation stock, ATP solid was diluted into folding buffer to a final concentration of 2.5 mM. Quench solution contained 600 mM EDTA (pH 8.0). The MDH enzymatic assay stock consisted of 20 mM sodium mesoxalate and 2.4 mM NADH in reaction buffer (50 mM Tris-HCl, pH 7.4, 50 mM KCl, and 1 mM DTT).
Assay Protocol: First, 30 μL aliquots of the GroEL/ES-dMDH or HSP60/10-dMDH binary complex stocks were dispensed into clear, 384-well polystyrene plates. […] The chaperonin-mediated refolding cycles were initiated by addition of 20 μL of ATP stock (reagent concentrations during refolding cycle: 50 nM GroEL or HSP60, 60 nM GroES or HSP10, 12 nM dMDH, 1 mM ATP, and compounds of 100 μM to 46 nM, 3-fold dilution series). The refolding reactions were incubated at 37° C. […] Next, the assay was quenched by addition of 10 μL of the EDTA to final concentration of 100 mM. […] A340 nm measurements were recorded at 0.5 minutes (start point) and at successive time points until the amount of NADH consumed reached ˜90% (end point, generally between 20-35 minutes). The differences between the start and end point A340 values were used to calculate the % inhibition of the GroEL/ES or HSP60/10 machinery by the compounds. […] Results presented represent the averages of IC50 values obtained from at least quadriplicate (duplicate of duplicate) replicates.

The mark [2] stands for this setting: ATCC19606, OD600 at 24 h, read-out: Bacterial Proliferation EC50 A. baumannii.
The mark [3] stands for this setting: ATCC19606, log of EC50 (μM scale), with standard deviation, read-out: log(EC50) Bacterial Proliferation Assay A. baumannii (converted).
Setting [4] is: read-out: HSP60/10-dMDH Refolding IC50.
Setting [5] is: log(IC50) ± standard deviation, read-out: HSP60/10-dMDH Refolding Assay log(IC50) (converted).
Setting [6] is: ATCC19606, 24 h, read-out: Bacterial Proliferation EC50 A. baumannii.
The mark [7] stands for this setting: ATCC19606, read-out: log(EC50) Bacterial Proliferation Assay A. baumannii (converted).

Read-outs that look alike come from different tables or passages of the source.

T1 sequence (P10809 27-573): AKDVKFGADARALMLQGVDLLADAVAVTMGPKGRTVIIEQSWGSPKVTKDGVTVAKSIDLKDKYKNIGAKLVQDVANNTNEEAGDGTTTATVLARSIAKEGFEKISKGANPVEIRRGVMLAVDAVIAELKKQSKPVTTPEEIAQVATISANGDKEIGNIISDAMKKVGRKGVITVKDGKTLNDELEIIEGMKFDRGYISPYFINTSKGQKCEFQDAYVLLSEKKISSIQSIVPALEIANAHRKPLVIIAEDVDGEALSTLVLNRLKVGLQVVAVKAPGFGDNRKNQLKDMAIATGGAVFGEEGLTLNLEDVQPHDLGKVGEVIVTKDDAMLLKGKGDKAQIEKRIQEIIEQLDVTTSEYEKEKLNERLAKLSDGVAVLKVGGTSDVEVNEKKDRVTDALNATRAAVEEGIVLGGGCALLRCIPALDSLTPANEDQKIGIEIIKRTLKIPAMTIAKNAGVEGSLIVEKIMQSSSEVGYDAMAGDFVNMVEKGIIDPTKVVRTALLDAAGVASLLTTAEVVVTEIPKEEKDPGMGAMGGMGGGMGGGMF

Take `COc1c(Br)cc(Br)cc1C(=O)Nc1cccc(Cl)c1` [Compound 37, 3,5-Dibromo-N-(3-chlorophenyl)-2-methoxybenzamide]: the EC50 in experiment [1] (setting [2]) and in experiment [1] (setting [3]) was > 100 µM each time. Moreover, the IC50 on human HSP60/10 (setting [4]) and on human HSP60/10 (setting [5]) was > 100 µM throughout.
As to `O=C(Nc1ccccc1)c1cc(Br)cc(Br)c1` [Compound 26, 3,5-Dibromo-N-phenylbenzamide], the EC50 in experiment [1] (setting [2]) and in experiment [1] (setting [3]) was > 100 µM each time. The IC50 on human HSP60/10 (setting [4]) and at human HSP60/10 (setting [5]) was > 100 µM each time.
On to `O=C(Nc1ccc(Sc2nc3ccccc3s2)cc1)c1cc(Br)cc(Br)c1O` [Compound 5, N-(4-(Benzo[d]thiazol-2-ylthio)phenyl)-3,5-dibromo-2-hydroxybenzamide], for which the EC50 in experiment [1] (setting [6]) and in experiment [1] (setting [7]) was > 100 µM each time. The values for the IC50 on human HSP60/10 (setting [4]) and on human HSP60/10 (setting [5]) were 4.7 µM and 4.68 µM, respectively.
For `O=C(Nc1ccc(Sc2nc3ccccc3s2)c(Cl)c1)c1cccc(Br)c1` [Compound 18, N-(4-(Benzo[d]thiazol-2-ylthio)-3-chlorophenyl)-3-bromobenzamide], the EC50 in experiment [1] (setting [2]) and in experiment [1] (setting [3]) was > 100 µM each time. The IC50 at human HSP60/10 (setting [4]) and on human HSP60/10 (setting [5]) was > 100 µM throughout.
Take `COc1c(Br)cccc1C(=O)Nc1ccccc1` [Compound 42, 3-Bromo-2-methoxy-N-phenylbenzamide]: the EC50 in experiment [1] (setting [2]) and in experiment [1] (setting [3]) was > 100 µM throughout. In addition, the IC50 on human HSP60/10 (setting [4]) and at human HSP60/10 (setting [5]) was > 100 µM in each case.
Take `COc1ccccc1C(=O)Nc1ccc(Sc2nc3ccccc3s2)cc1` [Compound 36, N-(4-(Benzo[d]thiazol-2-ylthio)phenyl)-2-methoxybenzamide]: the EC50 in experiment [1] (setting [2]) and in experiment [1] (setting [3]) was > 100 µM each time. In addition, the IC50 at human HSP60/10 (setting [4]) and on human HSP60/10 (setting [5]) was > 100 µM in each case.
With `O=C(Nc1cccc(Cl)c1)c1ccccc1` [Compound 25, N-(3-Chlorophenyl)benzamide], the EC50 in experiment [1] (setting [2]) and in experiment [1] (setting [3]) was > 100 µM in each case. Besides, the IC50 on human HSP60/10 (setting [4]) and at human HSP60/10 (setting [5]) was > 100 µM each time.
With `O=C(Nc1cccc(Cl)c1)c1cc(Br)cc(Br)c1O` [Compound 9, 3,5-Dibromo-N-(3-chlorophenyl)-2-hydroxybenzamide], the figures for the EC50 in experiment [1] (setting [6]) and in experiment [1] (setting [7]) were 46 µM and 45.7 µM, respectively. In addition, the results for the IC50 at human HSP60/10 (setting [4]) and on human HSP60/10 (setting [5]) were 29 µM and 28.8 µM, respectively.
In the case of `COc1c(Br)cccc1C(=O)Nc1cccc(Cl)c1` [Compound 38], the EC50 in experiment [1] (setting [2]) and in experiment [1] (setting [3]) was > 100 µM throughout. Also, the IC50 on human HSP60/10 (setting [4]) and at human HSP60/10 (setting [5]) was > 100 µM throughout.
`O=C(Nc1ccc(Sc2nc3ccccc3s2)c(Cl)c1)c1cc(Br)cc(Br)c1O` [Compound 1, N-(4-(Benzo[d]thiazol-2-ylthio)-3-chlorophenyl)-3,5-dibromo-2-hydroxybenzamide]: the values for the EC50 in experiment [1] (setting [6]) and in experiment [1] (setting [7]) were 66 µM and 66.1 µM, respectively. For the same compound, the IC50 on human HSP60/10 (setting [4]) is 4.2 µM; on human HSP60/10 (setting [5]), 4.17 µM.
In the case of `O=C(Nc1ccccc1)c1cccc(Br)c1` [Compound 27, 3-Bromo-N-phenylbenzamide], the EC50 in experiment [1] (setting [2]) and in experiment [1] (setting [3]) was > 100 µM in each case. Also, the IC50 at human HSP60/10 (setting [4]) and on human HSP60/10 (setting [5]) was > 100 µM in each case.
As for `O=C(Nc1cccc(Cl)c1)c1cccc(Br)c1O` [Compound 10, 3-Bromo-N-(3-chlorophenyl)-2-hydroxybenzamide], the EC50 in experiment [1] (setting [2]) and in experiment [1] (setting [3]) was > 100 µM in each case. Besides, the IC50 on human HSP60/10 (setting [4]) and at human HSP60/10 (setting [5]) was > 100 µM each time.
`Cc1cc(C(C#N)c2ccc(Cl)cc2)c(Cl)cc1NC(=O)c1cc(I)cc(I)c1O` (stereo not shown) [Closantel, closantel, reference compound]: the EC50 in experiment [1] (setting [6]) and in experiment [1] (setting [7]) was > 100 µM throughout.
As for `O=C(Nc1ccc(Oc2ccc(Cl)cc2)c(Cl)c1)c1cc(I)cc(I)c1O` [Rafoxanide, rafoxanide, reference compound], the EC50 in experiment [1] (setting [6]) is 31 µM; in experiment [1] (setting [7]), 30.9 µM.

Source of the values: US20210395210A1, “INHIBITION OF BACTERIAL CHAPERONIN SYSTEMS” (THE TRUSTEES OF INDIANA UNIVERSITY, priority 2018, published 2021).
